Laboratory results from patent US12565665B2, “Compositions and methods for controlled mRNA translation and stability” (TRUSTEES OF BOSTON UNIVERSITY, priority 2022, dated 2026).

Assays:
Type in all cases: cell-based, human
T2A* construct = test: Western blot (FLAG) of T2A* construct co-transfected with MCP-ADAR constructs; settings: 3 ng T2A* and 30 ng ADAR construct; lysates 48 hours later
Experimental: Additionally, the clonal HEK line was co-transfected with 3 ng of the T2A* construct and 30 ng of either filler DNA, MCP-dADAR, or MCP-ADAR. 48 hours later lysates were collected with 1×LDS-PAGE loading buffer (THERMOFISHER) on ice. The samples were sonicated, centrifuged, and boiled at 70° C. for 10 min after the addition of 1×Reducing Agent (THERMOFISHER). The samples were run on a 4%-12% bis-tris polyacrylamide gel at 175V for 45 minutes, and the samples were transferred onto a nitrocellulose membrane using the IBLOT (THERMOFISHER). Samples were probed for FLAG tag (Direct-Blot™ HRP anti-[…] Tag Antibody, “[…]” is disclosed as SEQ ID NO: 406) and GAPDH-loading control (Direct-Blot™ HRP anti-GAPDH Antibody) respectively.

AUA reporter = test: Creation of a START codon (AUA to AUI), EGFPd2/dTomato reporter, flow cytometry; settings: 48 hours post-transfection, n=3
From the text: To test this, an ADAR substrate was designed composed of a dsRNA hairpin containing both an AUA-codon with a mismatch at the second adenine to promote specific deamination to AUI (as opposed to IUA or IUI) and an MS2 operator motif (see e.g., FIG. 26b). The design of one large dsRNA hairpin was chosen to promote correct folding of RNA secondary structures. Previous studies have shown that MS2 operators in the 5′UTR of eukaryotic mRNA can lead to decreased translational efficiency when co-expressed with its corresponding coat protein (MS2 coat protein, or MCP), so high and low affinity variants of the MS2 operator (called here MS2-C and MS2-A respectively for the base at the stem loop) were tested with the idea that the lower affinity MS2-A loop would be less likely to inhibit translation by coat protein alone. As positive controls, the same loops were also designed with the correct AUG start codon.
These designs were cloned into pcDNA3 vectors containing a bidirectional CMV promoter driving constitutive dTomato and EGFPd2 (see e.g., FIG. 26c). The S′UTR and start codon of EGFPd2 were replaced with the editable start codon designs so the translational efficiency could be measured by looking at the EGFPd2 fluorescence relative to dTomato when co-expressed with MCP-ADAR. In this construct, if the correct start codon is skipped, the next AUG codon leads to a short, out of frame translation product.
HEK293FT cells were co-transfected with each of the reporter constructs (MS2-C w/ AUG start, MS2-C w/ AUA start, MS2-A w/ AUG start, and MS2-A w/ AUA start) and either filler DNA, inactivated ADAR2-DD (E396A) fused to MCP (MCP-dADAR), or active ADAR2-DD (E488Q) fused to MCP (MCP-ADAR). 48 hours post-transfection, cells were lifted and analyzed by flow cytometry. Transfected cells were gated by dTomato, and the median EGFPd2-to-dTomato ratio for the population was calculated per replicate (n=3) by FLOWJO. 2-Way ANOVA was performed to determine significance.

[1] = tested on: mRNA reporters containing different number of stop codons and/or MS2 elements; test: Stop codon editing assay by Western blot; settings: HEK293FT cells; reporters with different numbers of stop codons and RNA elements
From the text: HEK 293 FT cells were co-transfected with plasmids expressing the reporter containing 2 UAG stop codons in the hairpin and a pcDNA3 construct encoding a fusion protein composed of MCP, ADAR2-DD (E488Q), and TagBFP.

T2A (G18R) construct = test: Sense codon editing (AGG to IGG) of T2A (G18R), UAS-H2B-mCherry reporter cells, flow cytometry; settings: 30 ng ADAR construct, n=3
From the text: To test inducible ADAR recoding of a protein's amino acid composition, a construct was designed that contained: a CD8 signal peptide, an HA epitope tag, the self-labeling Halo Tag, a mutant variant of the thosea asigna virus 2A self-cleaving peptide that is defective for ribosome skipping (Gly 18Arg mutation), the DNA binding domain of Gal4, and a 4× repeat of the transcriptional activation domain from herpes virus (VP64) (see e.g., FIG. 37a). The penultimate glycine in 2A peptides is invariant (see e.g., FIG. 37b) and any mutation leads to defective ribosome skipping. The codon for the G18R residue (AGG) is in a dsRNA hairpin with the high affinity MS2-C motif, which acts as a substrate for targeted MCP-ADAR. In the absence of ADAR editing, the defective T2A sequence will lead to the topological sequestering of the Gal4-VP64 transcription factor in the ER lumen due to the fusion to the secreted HaloTag (see e.g., FIG. 37c). Upon ADAR editing of the Arg18 codon to glycine (AGG to IGG), the T2A regains the function of ribosome skipping. This leads to the protein domains downstream of the T2A sequence to be translated as a separate polypeptide in the cytoplasm, whereby the GAL4-VP64 transcription factor translocate to the nucleus and turn on the expression of a fluorescent H2B-mCherry reporter (see e.g., FIG. 37c).
To test this, an in-house clonal HEK293FT cell line that contains an integrated UAS-H2B-mCherry reporter was co-transfected with the editable T2A (also called T2A*) construct (3 ng, 0.3 ng and 0.03 ng) and cither MCP-dADAR or MCP-ADAR (30 ng). A GAL4-VP64 positive control was also transfected into HEK cells. One day post-transfection, cells were lifted and analyzed by flow cytometry. Transfected cells were gated by TagBFP, the median H2B-mCherry fluorescence for the population was calculated and H2B-mCherry positive populations within the transfected cells were determined by the percentage of cells above 0.5% of non-transfected control cells per replicate (n=3) by FLOWJO.

## MCP-linker-ADAR2(E488Q)-TagBFP [MCP-ADAR]
T2A* construct
  FLAG staining of the main HaloTag-T2A*-FLAG-Gal4-VP64 fusion product (~67 kDa): reduced staining
AUA reporter
  effect on translational efficiency from a native AUG start codon, MS2-A substrate: more modest negative effect on translational efficiency
  increase of relative fluorescence, MS2-C w/ AUA reporter, relative to NT: not significant
  relative EGFPd2/dTomato fluorescence, MS2-A w/ AUA substrate: significant increase
AUA reporter; 2-Way ANOVA
  relative fluorescence (EGFPd2-to-dTomato) of MS2-C reporters compared with filler DNA (NT): significantly decreased the relative fluorescence
[1]
  off-target editing of stop-codon reporters, Western blot (HA-mNeonGreen): Almost no off-target editing
T2A (G18R) construct; 0.03 ng T2A* construct
  population expressing any H2B-mCherry compared to dADAR, 0.03 ng T2A*: significantly higher
T2A (G18R) construct; 0.3 ng T2A* construct
  population expressing any H2B-mCherry compared to dADAR, 0.3 ng T2A*: significantly higher
T2A (G18R) construct; 3 ng T2A* construct, one day post-transfection
  median H2B-mCherry expression compared to inactive MCP-dADAR control: significant increase
